Assay results published in patent publication US10524471B2, “Compositions and methods for increasing salt tolerance in plants” (King Abdullah University of Science and Technology, priority 2016, dated 2020).
“Also recorded” adds a separate entry of the source.

System: Arabidopsis seedlings
Assay: Arabidopsis salt stress tolerance assay (½ MS + 100 mM NaCl)
Format: in vivo, Arabidopsis thaliana

| Structure (SMILES) | SA187-induced tolerance to salt stress in presence of inhibitor (in vivo) | effect on salt stress tolerance compared with SA187 (100 nM ACC, ½ MS + 100 mM NaCl, 12 days after transfer) |
| --- | --- | --- |
| O=[N+]([O-])[O-].[Ag+] [AgNO3, silver nitrate] | did not exhibit any SA187-induced tolerance to salt stress | – |
| NC1(C(=O)O)CC1 [ACC, 1-aminocyclopropane-1-carboxylic acid] | – | could largely mimic the beneficial activity of SA187; also recorded: partially mimics the effect of SA187 |
